The record followed here is ChEMBL document CHEMBL1126321, “Antitumor agents. 123. Synthesis and human DNA topoisomerase II inhibitory activity of 2'-chloro derivatives of etoposide and 4 beta-(arylamino)-4'-O-demethylpodophyllotoxins” (J Med Chem, 1992).

The subject of experiment [1] is Nucleic Acid. The experiment in a line: Effect on cellular protein DNA complex formation(%) at 10 uM in comparison with etoposide. The class given is functional.
Experiment [2] addresses T1, DNA topoisomerase II (Homo sapiens) (UniProt P11388+Q02880). The experiment in a line: Evaluated for the inhibition of human DNA Topoisomerase II. The class given is protein assay.
A short description of experiment [3]: Concentration required for 50% reduction in KB cell number after 3-day incubation. The class given is functional, cell-based, Homo sapiens.
The target in experiment [4] is T1, DNA topoisomerase II (Homo sapiens). The experiment can be described thus: Compound was evaluated for the inhibition of human DNA Topoisomerase II. The class given is protein assay.

`COc1cc([C@@H]2c3cc4c(cc3[C@@H](O[C@@H]3O[C@@H]5CO[C@@H](C)O[C@H]5[C@H](O)[C@H]3O)[C@H]3COC(=O)[C@H]23)OCO4)c(Cl)c(OC)c1O` came in with a Complex formation in experiment [1] of 6.1%. In experiment [2], this molecule came in with an ID50 above 50 µM. Moreover, the concentration for half-maximal inhibition (IC50) in experiment [3] was above 6.4 µM.
The like results for `COc1cc([C@@H]2c3cc4c(cc3[C@@H](Nc3cccc(O)c3)[C@H]3COC(=O)[C@H]23)OCO4)c(Cl)c(OC)c1O` were, in that order, 0%, above 100 µM and 5.7 µM.
The like results for `COc1cc([C@@H]2c3cc4c(cc3[C@@H](Nc3ccc(Cl)cc3)[C@H]3COC(=O)[C@H]23)OCO4)c(Cl)c(OC)c1O` were, in that order, 0%, above 100 µM and above 7.3 µM.
Turning to `COc1cc([C@@H]2c3cc4c(cc3[C@@H](Nc3ccc(Br)cc3)[C@H]3COC(=O)[C@H]23)OCO4)c(Cl)c(OC)c1O`, the Complex formation in experiment [1] turned out to be 0%. In experiment [2], the ID50 was above 100 µM. The IC50 in experiment [3] is above 6.8 µM.
For the molecule `COc1cc([C@@H]2c3cc4c(cc3[C@@H](Nc3cccc(O)c3)[C@H]3COC(=O)[C@H]23)OCO4)cc(OC)c1O`, in experiment [1], the Complex formation turned out to be 290%. Besides, in experiment [3], the IC50 came to 0.45 µM.
In experiment [1], `COc1cc([C@@H]2c3cc4c(cc3[C@@H](Nc3ccc5c(c3)OCCO5)[C@H]3COC(=O)[C@H]23)OCO4)c(Cl)c(OC)c1O` had a Complex formation of 0%. Further, the ID50 in experiment [2] was above 100 µM. In addition, the IC50 in experiment [3] is above 7 µM.
Take `COc1cc([C@@H]2c3cc4c(cc3[C@@H](Nc3ccc5c(c3)OCO5)[C@H]3COC(=O)[C@H]23)OCO4)cc(OC)c1O`: the Complex formation in experiment [1] worked out at 279%. The ID50 in experiment [2] was found to be 10 µM. For the same molecule, in experiment [3], the IC50 turned out to be 0.68 µM.
Taken in the same sequence, the figures for `COc1cc([C@@H]2c3cc4c(cc3[C@@H](Nc3ccc(F)cc3)[C@H]3COC(=O)[C@H]23)OCO4)c(Cl)c(OC)c1O` were 0%, above 100 µM and above 7.5 µM.
For `COc1cc([C@@H]2c3cc4c(cc3[C@@H](Nc3ccc(F)cc3)[C@H]3COC(=O)[C@H]23)OCO4)cc(OC)c1O`, the Complex formation in experiment [1] came out at 213%. Besides, the IC50 in experiment [3] amounted to 0.24 µM.
As to `COc1cc([C@@H]2c3cc4c(cc3[C@@H](Nc3ccc([N+](=O)[O-])cc3)[C@H]3COC(=O)[C@H]23)OCO4)c(Cl)c(OC)c1O`, the ID50 in experiment [4] is above 100 µM. In experiment [1], this molecule registered a Complex formation of 0%. This molecule also showed an IC50 in experiment [3] above 7.2 µM.
`COc1cc([C@@H]2c3cc4c(cc3[C@@H](O)[C@H]3COC(=O)[C@H]23)OCO4)c(Cl)c(OC)c1O` came in with a Complex formation in experiment [1] of 15.6%. This molecule came in with an ID50 in experiment [2] above 50 µM. Further, the half-maximal inhibitory concentration (IC50) in experiment [3] is above 22.3 µM.
Molecule `COc1cc([C@@H]2c3cc4c(cc3[C@@H](Nc3ccc([N+](=O)[O-])cc3)[C@H]3COC(=O)[C@H]23)OCO4)cc(OC)c1O` had a Complex formation in experiment [1] of 323%. This molecule had an IC50 in experiment [3] of 0.49 µM.
As to `COc1cc([C@@H]2c3cc4c(cc3[C@@H](O[C@@H]3O[C@@H]5CO[C@@H](C)O[C@H]5[C@H](O)[C@H]3O)[C@H]3COC(=O)[C@H]23)OCO4)cc(OC)c1O` [ETOPOSIDE], the Complex formation in experiment [1] is 100%. Also, in experiment [3], the concentration for half-maximal inhibition (IC50) amounted to 0.2 µM.
Turning to `COc1cc([C@@H]2c3cc4c(cc3[C@@H](Nc3ccc5c(c3)OCO5)[C@H]3COC(=O)[C@H]23)OCO4)c(Cl)c(OC)c1O`, the Complex formation in experiment [1] amounted to 0%. Moreover, the ID50 in experiment [2] is above 100 µM. The molecule further had an IC50 in experiment [3] above 7.2 µM.
The like results for `COc1cc([C@@H]2c3cc4c(cc3[C@@H](Nc3cccc([N+](=O)[O-])c3)[C@H]3COC(=O)[C@H]23)OCO4)c(Cl)c(OC)c1O` were, in that order, 0%, above 100 µM and above 7.2 µM.

As usually defined, the IC50 is the concentration needed to halve the response being measured. Low readings indicate inhibition by little substance, high ones a need for much substance.
